Data taken from patent EP1844781A1 (priority 2006, dated 2007).
Like-named read-outs stand apart in the source and are kept apart here.

Assays:
Format in all cases: cell-based, Wistar rats
uterine strips [1] = assay: tissue or blood
uterine strips [2] = assay: Effect of inhibitors on electrically-induced uterine contractions (field electrical stimulation)
uterine strips [3] = assay: tissue or blood; conditions: for minimal effective concentration: read-out: concentration at which rhythmic contractions appeared
uterine strips [4] = system: uterine strips
myometrial strips = assay: Simultaneous measurement of contractile force and [Ca2+]i (Fura-2); conditions: veratridine 60 µM; myometrial fibers loaded with Fura-2; responding strips (10 of 21)
[5] = cumulative concentrations 1 nM-30 µM, strips exposed for 90 min (late response) to 60 µM veratridine

In the case of CN1[C@@H]2CC[C@H]1C[C@@H](OC(=O)C(CO)c1ccccc1)C2 (stereo partly drawn) [Atropine, atropine], the “contractile area of spontaneous contractions, % of the previous contractile area” value (uterine strips [1]) is reported as 26.7 ± 2.2%, the “effect on spontaneous uterine contractions” value (uterine strips [1]) is reported as “abolished or almost abolished” and the “contractile area of electrically-induced uterine contractions, % of the previous contraction” value (uterine strips [2]) is reported as 30.3 ± 8.1%.

In the case of COc1cc2nc(N3CCN(C(=O)c4ccco4)CC3)nc(N)c2cc1OC [Prazosin, prazosin], the activity at 1 µM (uterine strips [1]; Rattus norvegicus, 40 min, read-out: contractile area of spontaneous contractions, % of the previous contractile area) is reported as 108 ± 9.1% and the activity at 1 µM (uterine strips [2]; Rattus norvegicus, read-out: contractile area of electrically-induced uterine contractions, % of the previous contraction) is reported as 92.3 ± 4%.

For CCN1C[C@]2(COC)[C@H](O)C[C@H](OC)[C@@]34[C@@H]5C[C@@]6(O)[C@H](OC(=O)c7ccccc7)[C@@H]5[C@@](OC(C)=O)([C@@H]([C@H](OC)[C@H]23)[C@@H]14)[C@@H](O)[C@@H]6OC [aconitine], the “concentration at which the maximal response was reached” value (uterine strips [3]) was 100 µM and the minimal effective concentration (uterine strips [3]) was ≥ 100 µM.

For C=C(C=O)C[C@@H]1C[C@H](O)[C@]2(C)O[C@@H]3C[C@@H]4O[C@@H]5C[C@]6(C)O[C@]7(C)CC[C@@H]8O[C@@H]9C[C@]%10(C)O[C@@H]%11C(C)=CC(=O)O[C@H]%11C[C@H]%10O[C@H]9C[C@@H](C)[C@H]8O[C@H]7C[C@H]6O[C@H]5C/C=C\[C@H]4O[C@H]3C[C@H]2O1 [brevetoxin-B], the “concentration at which the maximal response was reached” value (uterine strips [3]) was 0.03 µM.

For O=C(NCC1CCCCN1)c1cc(OCC(F)(F)F)ccc1OCC(F)(F)F (stereo not drawn) [flecainide], the “effect on veratridine-induced rhythmic contractions” value (uterine strips [4]; [5]) was “did not modify”.

COc1ccc(C(=O)O[C@H]2CC[C@@]3(C)[C@@H]4CC[C@H]5[C@]6(O)C[C@H](O)[C@@]7(O)[C@@H](CN8C[C@@H](C)CC[C@H]8[C@@]7(C)O)[C@]6(O)C[C@@]53O[C@]24O)cc1OC [veratridine] was tested, and the minimal effective concentration (uterine strips [3]; Rattus norvegicus, […], non-pregnant rats, undetermined stage of the ovarian cycle) was ≥ 10 µM, the “concentration at which the maximal response was reached” value (uterine strips [3]; measured during a 60 min application, 1.9 or 1.1 mM Ca2+-containing solution) was 60 µM and the “time the contractile response remained very regular and well maintained after addition” value (uterine strips [3]; veratridine 60 µM, continuous presence, 24 uterine strips from 12 animals) was “at least 12 h”. The frequency of contractions (myometrial strips) was 0.75 ± 0.09 min⁻¹ and the “mean amplitude of rhythmic contractions during a 10-min period” value (myometrial strips) was 8.48 ± 1.20 mN.

With CCOC(=O)C1=C[C@]2(CC)CCCN3CCc4c(n1c1ccccc41)[C@@H]32 [vinpocetine] the “effect on veratridine-induced rhythmic contractions” value (uterine strips [4]; [5]) was “did not modify”.

With grayanotoxin the “concentration at which the maximal response was reached” value (uterine strips [3]) was 30 µM and the minimal effective concentration (uterine strips [3]) was ≥ 20 µM.

For µ-conotoxin GIIIB, the “effect on veratridine-induced rhythmic contractions” value (uterine strips [4]) was “did not modify”.
